“And” between values parts separate entries of the source, which are not always exact repeats. Identical values can stand only once. One block for each compound: values may come before it.
Tests used:
[1] = Liposome size and zeta potential (dynamic/electrophoretic light scattering); assay type: physicochemical; settings: liposomes 80:10:10 DSPC:DOTAP:Chol containing the 5FU analogue
Method: To measure drug encapsulation, 50 μL of drug-loaded liposomes were dissolved in 950 μL methanol through vortexing and sonication. The dissolved liposomes were centrifuged at 12000 g for 20 minutes to allow the lipids to pellet. The supernatant was collected, diluted serially, and their absorbances were measured at 480 nm, 266 nm, 264 nm, 268 nm, 268 nm, and 394 nm to quantify DOX, 5FU, 5FUG, 5FUW, 5FUR, and 5FURW concentrations, respectively. Drug encapsulation is reported as the mol % of drug with respect to lipids±SD. Liposome sizes and ζ potentials were determined utilizing dynamic light scattering and electrophoretic light scattering, respectively, on a Malvern ZSizer Nano ZS. Samples were diluted 100× in distilled de-ionized water immediately prior analysis, and each measurement is reported as an average of 3 independent sets of at least 13 runs each ±SD.

[2] = tested on: 4T1 breast cancer cell line; test: 5FURW cell viability studies (Example 4); assay type: cell-based, mouse; settings: for IC50: Mus musculus
Method: (§1) Two breast cancer cell lines (of mouse and human, 4T1 and MDA-MB-231) were tested with the synthesized 5FURW, compared with 5FU and also with encapsulated drug in liposomes functionalized with amino and carboxyl groups (Table 4, FIG. 13).

[3] = tested on: ROS generation in BT-474 cells; test: Reactive oxygen species generation, carboxy-H2DCFDA confocal microscopy; assay type: cell-based, human; settings: 72 hours incubation
Method: To visualize and assess the production of reactive oxygen species (ROS), cells were seeded in an 8-well chambered borosilicate coverglass (Nunc Lab-Tek) at a density of 85,000 cells per well in 300 μL medium and grown overnight prior to incubation with drug solutions in fresh medium. After incubation of BT-474 cells with either 5FU and DOX at a molar ratio of 819:1, 5FU alone, or DOX alone for 72 hours, cells were washed three times in PBS and exposed to 10 μM carboxy-H2DCFDA (Invitrogen Life Technologies) in phosphate buffered saline (PBS; Theimo Scientific) for 30 minutes at 37° C. and 5% CO2. Upon acetate cleavage and oxidation, carboxy-H2DCFDA formed carboxydichlorofluorescein and acted as an ROS indicator. Cells were washed thrice more in PBS, finally suspended in cell culture medium, and immediately imaged live using an Olympus Fluoview 1000 spectral confocal microscope. Carboxydichlorofluorescein and DOX were both excited utilizing a 488 nm 10 mW Argon gas laser and visualized with 492-560 nm and 574-674 nm optical filters, respectively. Images were captured as 10 μm z-stacks, and each z-stack was averaged into a single image using ImageJ 1.47 h software (NIH). Fluorescence intensity is reported as the raw integrated density divided by number of cells, determined by DOX fluorescence which coincided with cell nuclei.

[4] = tested on: BT-474 human breast cancer cells; test: Combination Index (CI) study of free drugs, MTT cell viability; assay type: cell-based
Method: (§2) For cell viability studies, BT-474 cells were seeded at a density of 10,000 cells per well in 100 μL cell culture medium, grown overnight and incubated with drug solutions for 72 hours. Cell viability was assessed post drug-incubation via 3-(4,5-Dimethylthiazol-2-yl)-2,5-diphenyltetrazolium bromide (MTT; Invitrogen Life Technologies) assays. Individual drug concentrations which inhibit 50% cell growth (D50) were first determined by fitting dose-effect data to the median-effect model (Chou and Talalay, Advances in Enzyme Regulation 1984, 22, 27-55). For combinatorial studies, 5FU and DOX were simultaneously incubated with BT-474 cells at ratios of differing multiples of their D50 concentrations, and cell viability was subsequently assessed. CI values were further calculated, as previously described (Chou, Pharmacological Reviews 2006, 58(3): p. 621-621), with the designations of CI<1, CI=1, and C>1 respectively representing synergy, additivity, and antagonism. The same methodology was applied to assess interactions between all other chemotherapy combinations presented.

[5] = tested on: MDA-MB-231 breast cancer cell line; test: 5FURW cell viability studies (Example 4); assay type: cell-based, human; settings: for IC50: Homo sapiens
Method: as §1

[6] = Drug encapsulation in liposomes (absorbance after dissolution); assay type: physicochemical; settings: for Drug Incorporation: liposomes 80:10:10 DSPC:DOTAP:Chol containing the 5FU analogue; for enhancement of liposomal drug encapsulation relative to 5FU: cationic liposomes
Method: The dissolved liposomes were centrifuged at 12000 g for 20 minutes to allow the lipids to pellet. […] Drug encapsulation is reported as the mol % of drug with respect to lipids±SD. Liposome sizes and ζ potentials were determined utilizing dynamic light scattering and electrophoretic light scattering, respectively, on a Malvern ZSizer Nano ZS. Samples were diluted 100× in distilled de-ionized water immediately prior analysis, and each measurement is reported as an average of 3 independent sets of at least 13 runs each ±SD. Drug encapsulation was evaluated for each drug, and the encapsulation methods reported here provided the highest yield for each respective drug. […] To remove free drug, liposomes were finally passed through a Sephadex G-25 PD-10 column.

[7] = tested on: MCF 10A human breast epithelial cells; test: MTT toxicity against healthy epithelial cells; assay type: cell-based; settings: synergistic ratio R=819 vs single drug
Method: as §2
These cell types were chosen because any systemically-administered drug is susceptible to interactions and uptake by endothelial cells, as well as epithelial cells in surrounding healthy tissue.

[8] = Encapsulation efficiency and loading capacity of drug-loaded liposomes (Example 4); assay type: physicochemical; settings: 5FURW in PEGylated liposomes, 2 h encapsulation
Method: Liposomes were prepared with a mixture of DSPC:DSPE-PEG(2000)Amine or DSPE-PEG(2000)Carboxyl:Cholesterol:DOTAP with the ratio 75:5:10:10 via the thin lipid film formation. After the formation of the lipids and passing them through an extruder to obtain monodisperse 100 nm liposomes, the external solvent was changed using a size exclusion column and the drug encapsulated during two hours. Briefly, the thin lipid films were hydrated with 250 mM (NH4)SO4 to form liposomes containing either amine-terminated PEG or carboxy-terminated PEG. 1 mL of liposomes and 200 μL of 73 mM 5FURW were used for the encapsulation of 5FURW into the liposomes. […]
The encapsulation efficiency and loading capacity were calculated as follows: […]
The liposomes were characterized using (i) the Steward assay to determine lipid concentration, (ii) absorbance at 270 nm to evaluate 5FURW concentration, and (iii) dynamic light scattering measurements to evaluate size and surface potential. […]
The DAFODIL fabrication procedure was performed as follows. […] Characterization consisted of absorbance measurements at 270 nm and 480 nm to determine the concentration of 5FURW and DOX, respectively, dynamic light scattering measurements to measure liposome size and surface potential, and Stewart assay to quantify the concentration of lipids in the sample.

[9] = literature (Haran et al.); cited from earlier work
[10] = tested on: BT-474 cells; test: Liposomal cancer cell growth inhibition, calcein-AM viability assay; assay type: cell-based, human
Method: (§3) In vitro anticancer efficacy of drug-loaded liposomes was determined via calcein-AM cell viability assay. BT-474 cells or 4T1 cells were seeded in a 96-well cell culture plate at a density of 11,000 cells per well or 1,000 cells per well in a total volume of 100 μL media and allowed to adhere overnight. Media was then replaced with fresh media containing liposomes and incubated for 72 hours or 48 hours for BT-474 or 4T1 cells, respectively. The discrepancies of cell seeding densities and drug incubation times between BT-474 cells and 4T1 cells is due to the much lower doubling time of 4T1 cells compared to BT-474. Parameters were modified such that untreated cells reached 70% confluency after treatment. After incubation with liposomes, media was aspirated and replaced with 1 μM calcein-AM in PBS for 30 minutes at room temperature. Fluorescence intensity of intracellularly hydrolyzed calcein-AM was measured using excitation and emission wavelengths of 490 nm and 520 nm. Fractional cell inhibition was calculated by subtracting fluorescence of live cells in experimental wells from those of untreated cells and normalizing against untreated cells. D50 concentrations were determined by fitting experimental data to the median-effect model (Chou and Talalay, Advances in Enzyme Regulation 1984, 22, 27-55), and their error is reported as the standard error of the model fit.

[11] = tested on: 4T1 murine breast cancer cells; test: as above; assay type: cell-based, mouse; settings: 4T1, W concentrations expected during 5FURW cytotoxicity assays, free or liposome-encapsulated
Method: as §3

SMILES: NCC(=O)OCn1cc(F)c(=O)[nH]c1=O [5FUG, 1-[(aminomethyl)-ester]methylene-5-fluorouracil]
Size [1]: 161.8 ± 10.8 nm | Zeta Potential [1]: 41.2 ± 1.8 mV | Drug Incorporation [6]: 1.4 mol % and 1.4 ± 0.5 mol %

SMILES: NC(Cc1c[nH]c2ccccc12)C(=O)OC[C@H]1O[C@@H](n2cc(F)c(=O)[nH]c2=O)C(OC(=O)C(N)Cc2c[nH]c3ccccc23)C1OC(=O)C(N)Cc1c[nH]c2ccccc12 (some centres unmarked) [5FURW, 5-fluorouridine-2′, 3′, 5′-tritryptophanate]
Size [1]: 163.8 ± 17.2 nm | Zeta Potential [1]: 32.2 ± 6.5 mV | activity relative to 5FU [2]: 2.5 fold | IC50 [2]: 41.2 µM | encapsulation efficiency [8]: 20% | loading capacity [8]: 20% | anticancer activity compared with 5FUR ([4]; free solution and liposomes, FIGS. 5A and 5B): same anticancer activity as unmodified 5FUR | activity relative to 5FU [5]: 127 fold | IC50 [5]: 0.396 µM | enhancement of liposomal drug encapsulation relative to 5FU [6]: 38 fold | Drug Incorporation [6]: 26.6 ± 2.4 mol %

SMILES: N[C@@H](Cc1c[nH]c2ccccc12)C(=O)O [tryptophan]
toxicity [11]: non-toxic | toxicity ([10]; BT-474, W concentrations expected during 5FURW cytotoxicity assays, free or liposome-encapsulated): non-toxic

Continued, in another order:

Size [1]: 173.5 ± 43 nm | Zeta Potential [1]: 41.7 ± 9.8 mV | IC50 [2]: 104 µM | IC50 [5]: 50.4 µM | Drug Incorporation [6]: 0.7 mol % and 0.7 ± 0.2 mol %
SMILES: O=c1[nH]cc(F)c(=O)[nH]1 [5FU, 5-fluorouracil, reference compound]
ROS generation [3]: negligible ROS generation | BT-474 cancer cell growth inhibited ([4]; same 5FU concentrations, combination at R=819, FIG. 3B): 40% | reduction of D50 ratio (BT-474 relative to MCF 10A) by combining at R=819, relative to individual drug [7]: 36 fold

Size [1]: 177.4 ± 2.8 nm | Zeta Potential [1]: 37.9 ± 1.0 mV | enhancement of liposomal drug encapsulation relative to 5FU [6]: ~5 fold | Drug Incorporation [6]: 3.7 mol % and 3.7 ± 0.2 mol %
SMILES: O=c1[nH]c(=O)n([C@@H]2O[C@H](CO)[C@@H](O)[C@H]2O)cc1F [5FUR, 5-fluorouridine, reference compound]

Size [1]: 167.4 ± 1.8 nm | Zeta Potential [1]: 19.6 ± 0.6 mV | Drug Incorporation [6]: 3.2 mol % and 3.2 ± 0.4 mol %
SMILES: N[C@@H](Cc1c[nH]c2ccccc12)C(=O)OCn1cc(F)c(=O)[nH]c1=O [5FUW, (5-fluoro-2,4-dioxo-3,4-dihydropyrimidin-1(2H)-yl)methyl tryptophanate]

IC50 ([10]; BT-474, 72 hrs, fit to ME model, read-out: D50 (DOX-equivalent concentration inhibiting 50% cell growth)): 300 nM
SMILES: COc1cccc2c1C(=O)c1c(O)c3c(c(O)c1C2=O)C[C@@](O)(C(=O)CO)C[C@@H]3O[C@H]1C[C@H](N)[C@H](O)[C@H](C)O1 [DOX, doxorubicin]
liposomal encapsulation of DOX [9]: 14-24 mol % | ROS generation [3]: Little ROS generation | reduction of D50 ratio (BT-474 relative to MCF 10A) by combining at R=819, relative to individual drug [7]: 5 fold

— patent US11191774B2, “Drug formulations for cancer treatment” (The Regents of the University of California, priority 2015, dated 2021)
